Source: US9593305B2, “Differentiation of pluripotent stem cells” (Janssen Biotech, Inc., priority 2008, dated 2017)

Legend:
[1] = tested on: H1 human embryonic stem cells; experiment: Analog screening with GDF-8 and growth factor/agonist pool (Example 8, Tables 7 and 8); assay type: cell-based
Procedure: Briefly, clusters of H1 human embryonic stem cells were grown on reduced growth factor […]™ (Invitrogen; Cat #356231)-coated tissue culture plastic. Cells were passaged using collagenase (Invitrogen; Cat #17104-019) treatment and gentle scraping, washed to remove residual enzyme, and plated with even dispersal at a ratio of 1:1 (surface area) on reduced growth factor […]™-coated 96-well black plates (Packard ViewPlates; PerkinElmer; Cat #6005182) using volumes of 100 μl/well. Cells were allowed to attach as clusters and then recover log phase growth over a 1 to 3 day period, feeding daily with MEF conditioned medium supplemented with 8 ng/ml bFGF (R&D Systems; Cat #233-FB). Plates were maintained at 37° C., 5% CO2 in a humidified box throughout the duration of assay. Growth factors purchased from R&D Systems were EGF (Cat #236-EG), FGF4 (Cat #235-F4), PDGF-A (Cat #221-AA), PDGF-D (Cat #1159-SB), PDGF-A/B (Cat #222-AB). […] Screening was conducted using a library of compounds that were made available as 5 mM stocks in 96-well plate format, solubilized in 100% DMSO (Sigma; Cat #D2650) and stored at −80° C. The compounds were further diluted to an intermediate concentration of 0.2 mM in 50 mM HEPES (Invitrogen; Cat #15630-080), 20% DMSO and stored at 4° C. Test conditions were performed in single wells, feeding on alternate days over a four-day assay period. Primary screening assays were initiated by aspirating culture medium from each well followed by three washes in PBS (Invitrogen; Cat #14190) to remove residual growth factors and serum. On the first day of assay, test volumes of 200 μl per well were added back containing DMEM:F12 base medium (Invitrogen; Cat #11330-032) supplemented with 0.5% FCS (HyClone; […] Cat #1324-WN) plus 2.5 μM compound. All remaining growth factors were tested at a final assay concentration of 50 ng/ml (EGF, FGF4, PDGF-A, PDGF-A/B, VEGF) with the exception of GDF-8 tested at 25 ng/ml. […] Cat #120-14). […] All remaining growth factors were tested at a final assay concentration of 50 ng/ml (EGF, FGF4, PDGF-A, PDGF-A/B, VEGF) with the exception of GDF-8 tested at 25 ng/ml. […] Cat #120-14). Negative control samples contained DMEM:F12 base medium supplemented with 2% FCS. […] At the conclusion of four-days of culture, assay plates were washed twice with PBS (Invitrogen; Cat #14190), fixed with 4% paraformaldehyde (Alexis Biochemical; Cat #ALX-350-011) at room temperature for 20 minutes, then washed three times with PBS and permeabilized with 0.5% Triton X-100 (Sigma; Cat #T8760-2) for 20 minutes at room temperature. Cells were washed again three times with PBS and blocked with 4% chicken serum (Invitrogen; Cat #16110082) in PBS for 30 minutes at room temperature. Primary antibody (goat anti-human SOX17; R&D Systems; Cat #AF1924) was diluted 1:100 in 4% chicken serum and added to each well for one hour at room temperature. Alexa Fluor 488 conjugated secondary antibody (chicken anti-goat IgG; Molecular Probes; Cat #AZ1467) was diluted 1:200 in PBS and added to each sample well after washing three times with PBS. To counterstain nuclei, 4 μg/ml Hoechst 33342 (Invitrogen; Cat #H3570) was added for ten minutes at room temperature. Plates were washed once with PBS and left in 100 μl/well PBS for imaging. Imaging was performed using an IN Cell Analyzer 1000 (GE Healthcare) utilizing the 51008bs dichroic for cells stained with Hoechst 33342 and Alexa Fluor 488. Exposure times were optimized from positive control wells and from untreated negative control wells stained with secondary antibody alone. Images from 15 fields per well were acquired to compensate for any cell loss during the bioassay and subsequent staining procedures. […] Segmentation for the nuclei was determined based on gray-scale levels (baseline range 100-300) and nuclear size. Averages and standard deviations were calculated for each replicate data set. […]

[2] = tested on: H1 human embryonic stem cells; experiment: Analogue screening in combination with only GDF-8, SOX17 (Example 21, Tables 18 and 19); assay type: cell-based; parameters: Sox17 Expression: % of positive control / Cell Number: % of positive control: tested at 2.5 µM; conditions: compound in combination with GDF8; for Cell Number: Average Total Cell Number / Sox17 Expression: Average Total Intensity: four assay plates; for Cell Number: % of positive control / Sox17 Expression: % of positive control: relative to Activin A/Wnt3a of the same plate
Procedure: Briefly, clusters of H1 human embryonic stem cells were grown on reduced growth factor Matrigel™ (Invitrogen; Cat #356231)-coated tissue culture plastic. Cells were passaged using collagenase (Invitrogen; Cat #17104-019) treatment and gentle scraping, washed to remove residual enzyme, and plated with even dispersal at a ratio of 1:1 (surface area) on reduced growth factor […]™ (BD Biosciences; Cat #356231)-coated 96-well black plates (Packard ViewPlates; PerkinElmer; Cat #6005182) using volumes of 100 μl/well. Cells were allowed to attach and then recover log phase growth over a 1 to 3 day time period, feeding daily with MEF conditioned medium supplemented with 8 ng/ml bFGF (R&D Systems; Cat #233-FB). Plates were maintained at 37° C., 5% CO2 in a humidified box throughout the duration of assay.
Screening was conducted using a library of the analogue compounds. Compounds from this library were made available as 5 mM stocks in 96-well plate format, solubilized in 100% DMSO (Sigma; Cat #D2650) and stored at −80° C. The library compounds were further diluted to an intermediate concentration of 0.2 mM in 50 mM HEPES (Invitrogen; Cat #15630-080), 20% DMSO and stored at 4° C. Test conditions were performed in triplicate, feeding on alternating days over a four-day assay period. Assays were initiated by aspirating culture medium from each well followed by three washes in PBS (Invitrogen; Cat #14190) to remove residual growth factors. On the first day of assay, test volumes of 200 μl per well were added to each well using DMEM:F12 base medium (Invitrogen; Cat #11330-032) supplemented with 0.5% FCS (HyClone; Cat #SH30070.03) and 200 ng/ml GDF-8 (R&D Systems, Cat #788-G8) plus 2.5 μM compound. On the third day of assay, test volumes of 100 μl per well were added to each well using DMEM:F12 base medium supplemented with 2% FCS plus 200 ng/ml GDF-8 (R&D Systems, Cat #788-G8). Positive control samples contained the same base medium supplemented with FCS and 1000 ng/ml recombinant human activin A (PeproTech; Cat #120-14) throughout the four-day assay along with Wnt3a (20 ng/ml) on days 1 and 2. Negative control samples contained DMEM:F12 base medium supplemented with FCS, adding Wnt3a on days 1 and 2 but omitting treatment with activin A.
At the conclusion of four-days of culture, assay plates were washed twice with PBS (Invitrogen; Cat #14190), fixed with 4% paraformaldehyde (Alexis Biochemical; Cat #ALX-350-011) at room temperature for 20 minutes, then washed three times with PBS and permeabilized with 0.5% Triton X-100 (Sigma; Cat #T8760-2) for 20 minutes at room temperature. Cells were washed again three times with PBS and blocked with 4% chicken serum (Invitrogen; Cat #16110082) in PBS for 30 minutes at room temperature. Primary antibody (goat anti-human SOX17; R&D Systems; Cat #AF1924) was diluted 1:100 in 4% chicken serum and added to each well for one hour at room temperature. Alexa Fluor 488 conjugated secondary antibody (chicken anti-goat IgG; Molecular Probes; Cat #AZ1467) was diluted 1:200 in PBS and added to each sample well after washing three times with PBS. To counterstain nuclei, 4 μg/ml Hoechst 33342 (Invitrogen; Cat #H3570) was added for ten minutes at room temperature. Plates were washed once with PBS and left in 100 μl/well PBS for imaging.
Imaging was performed using an IN Cell Analyzer 1000 (GE Healthcare) utilizing the 51008bs dichroic for cells stained with Hoechst 33342 and Alexa Fluor 488. Exposure times were optimized from positive control wells and from untreated negative control wells stained with secondary antibody alone. Images from 15 fields per well were acquired to compensate for any cell loss during the bioassay and subsequent staining procedures. Measurements for total cell number and total SOX17 intensity were obtained from each well using IN Cell Developer Toolbox 1.7 (GE Healthcare) software. […]

[3] = Plate 2, compound + EGF, FGF, PDGF-A, VEGF, PDGF-D, muscimol, GDF8
[4] = Plate 2, compound + EGF, FGF, PDGF-A, VEGF, PDGF-D, muscimol, GDF8, positive control Activin A/Wnt3a
[5] = Table 8: hits with greater than 25% activity of the positive control, with GDF-8 and growth factors/agonists
[6] = Plate 1, compound + EGF, FGF, PDGF-A, VEGF, PDGF-D, muscimol, GDF8
[7] = Plate 1, compound + EGF, FGF, PDGF-A, VEGF, PDGF-D, muscimol, GDF8, positive control Activin A/Wnt3a

## O=C1CCN2CCN(CC2)Cc2cc(ccc2Cl)Nc2ncnc(n2)-c2ccnc(c2)CCCN1 [Compound 27, 4-Chloro-1,8,10,12,17,22,26,32-octaazapentacyclo[24.2.2.1˜3,7˜1.˜9,13˜0.1˜14,18˜1]tritriaconta-3(33), 4,6,9(32), 10,12,14(31), 15,17-nonaen-23-one]
[1]; [3]
  Cell Number, Average Total Cell Number: 8044
  Sox17 Expression, Average Total Intensity: 8.81E+07
[1]; [4]
  Cell Number, % of positive control: 50.9 % of positive control
  Sox17 Expression, % of positive control: 30.8 % of positive control
[1]; [5]
  Cell Number, % of positive control: 50.9 % of positive control
  Sox17 Expression, % of positive control: 30.8 % of positive control
  Sox17 Expression, Average Total Intensity: 8.81E+07
[2]
  Cell Number: Average Total Cell Number: 3721
  Sox17 Expression: Average Total Intensity: 1.19E+07
  Cell Number: % of positive control: 26.7%
  Sox17 Expression: % of positive control: 3.9%

## CN1CCCc2cccc(c2)-c2ncnc(n2)Nc2cccc(c2)CCNC(=O)C1 [Compound 28, 18-Methyl-3,5,7,15,18,28-hexaazatetracyclo[20.3.1.1˜2,6˜0.1˜8,12˜]octacosa-1(26), 2(28), 3,5,8(27), 9,11,22,24-nonaen-16-one]
[1]; [3]
  Cell Number, Average Total Cell Number: 7591
  Sox17 Expression, Average Total Intensity: 8.77E+07
[1]; [4]
  Cell Number, % of positive control: 48.0 % of positive control
  Sox17 Expression, % of positive control: 30.7 % of positive control
[1]; [5]
  Cell Number, % of positive control: 48.0 % of positive control
  Sox17 Expression, % of positive control: 30.7 % of positive control
  Sox17 Expression, Average Total Intensity: 8.77E+07
[2]
  Cell Number: Average Total Cell Number: 5236
  Sox17 Expression: Average Total Intensity: 4.03E+07
  Cell Number: % of positive control: 37.5%
  Sox17 Expression: % of positive control: 13.1%

## O=C1NCCc2cccc(c2)Nc2ncnc(n2)-c2cccc(c2)CCCN2CCC1CC2 [Compound 31, 1,11,13,15,23,31-Hexaazapentacyclo[23.2.2.1˜5,9˜0.1˜10,14˜0.1˜16,20˜]dotriaconta-5(32), 6,8,10(31), 11,13,16(30), 17,19-nonaen-24-one]
[1]; [6]
  Cell Number, Average Total Cell Number: 6957
  Sox17 Expression, Average Total Intensity: 6.59E+07
[1]; [7]
  Cell Number, % of positive control: 51.9 % of positive control
  Sox17 Expression, % of positive control: 26.3 % of positive control
[1]; [5]
  Cell Number, % of positive control: 51.9 % of positive control
  Sox17 Expression, % of positive control: 26.3 % of positive control
  Sox17 Expression, Average Total Intensity: 6.59E+07
[2]
  Cell Number: Average Total Cell Number: 3619
  Sox17 Expression: Average Total Intensity: 1.36E+07
  Cell Number: % of positive control: 24.1%
  Sox17 Expression: % of positive control: 3.9%

## CCN1CCCc2cccc(c2)-c2ncnc(n2)Nc2ccccc2CNC(=O)C1 [Compound 32, 15-Ethyl-13,14,15,16,18,19-hexahydro-1H-6,2-(azeno)-7,11-(metheno)-1,3,5,15,18-benzopentaazacyclohenicosin-17(12H)-one]
[1]; [6]
  Cell Number, Average Total Cell Number: 8066
  Sox17 Expression, Average Total Intensity: 9.29E+07
[1]; [7]
  Cell Number, % of positive control: 60.2 % of positive control
  Sox17 Expression, % of positive control: 37.1 % of positive control
[1]; [5]
  Cell Number, % of positive control: 60.2 % of positive control
  Sox17 Expression, % of positive control: 37.1 % of positive control
  Sox17 Expression, Average Total Intensity: 9.29E+07
[2]
  Cell Number: Average Total Cell Number: 4338
  Sox17 Expression: Average Total Intensity: 3.63E+07
  Cell Number: % of positive control: 28.9%
  Sox17 Expression: % of positive control: 10.5%
